Results as given in US20190070154A1, “NEW METHODS OF USE FOR AN ANTI-DIARRHEA AGENT” (Duke University, priority 2015, published 2019).

System: Wnt/β-catenin transcription
Assay: TOPFlash Reporter Assay (Wnt-3A-stimulated HEK293 cells stably transfected with p8xTOPFlash)
Assay type: cell-based
Conditions: for IC50: Homo sapiens, read-out: Inhibition Wnt/β-catenin transcription TopFlash IC50; for IC50 / Inhibition Wnt/β-catenin transcription TopFlash, % inhibition: HEK293 TOPFlash cells, Wnt-3A conditioned medium, 8 hour treatment
Procedure: Wnt-3A conditioned medium was prepared using L WNT-3A cells (ATCC(CRL-2647™) purchased from ATCC. Conditioned medium was obtained following published protocols (http://www.atcc.org/Products/All/CRL-2647.aspx#culturemethod) (Chen, M. Y.; Wang, J. B.; Lu, J. Y.; Bond, M. C.; Ren, X. R.; Lyerly, H. K.; Barak, L. S.; Chen, W. Biochemistry 2009, 48, 10267). HEK293 cells were stably transfected with p8×TOPFlash, Renilla luciferase plasmid pRL-TK (Promega), and pLKO.1 as previously published (Chen, M. Y.; Wang, J. B.; Lu, J. Y.; Bond, M. C.; Ren, X. R.; Lyerly, H. K.; Barak, L. S.; Chen, W. Biochemistry 2009, 48, 10267). Stably transfected cells were seeded in 100 μl of cell growth medium/well in 96-well plates at 100% confluency. Fifty microliters of Wnt-3A conditioned medium containing the chemical compounds to be tested or DMSO was added to each well. After an 8 hour treatment, the cells were washed once with PBS and lysed with 55 μl of Passive Lysis Buffer supplied in the Dual-Luciferase Reporter Assay kit (Promega, Madison, Wis.). Twenty-five microliters of cell lysate was used for measuring luciferase activity in a 96-well plate reader (FluoStar Optima, BMG Labtech, Chicago, Ill.). Data were fit using GraphPad Prism (mean±SEM, n>=2).
Data is from a single experiment unless otherwise noted. Data that is an average of two experiments is noted as “n=2” while data that is an average of three or more experiments is presented as the average plus or minus the standard error of the mean.

Row | IC50 [µM] | Compound | further results
1 | 1.67 | O=C(Nc1ccc(C(F)(F)F)cn1)c1cc(Cl)ccc1O [Compound 3, 5-chloro-2-hydroxy-N-(5-(trifluoromethyl)pyridin-2-yl)benzamide] | 
2 |  | O=C(Nc1ccncc1Cl)c1cc(Cl)ccc1O [Compound 1, 5-chloro-N-(3-chloropyridin-4-yl)-2-hydroxybenzamide] | Inhibition Wnt/β-catenin transcription TopFlash, % inhibition (at 10 μM): 80% inhibition at 10 μM
3 | > 12 | O=C(Nc1ncc([N+](=O)[O-])s1)c1ccccc1O [B, reference compound] | 
4 | 0.49 | O=C(Nc1ccc([N+](=O)[O-])cc1Cl)c1cc(Cl)ccc1O [A, reference compound] | 
5 |  | CC(=O)Oc1ccccc1C(=O)Nc1ncc([N+](=O)[O-])s1 [nitazoxanide, reference compound] | Inhibition of the Wnt/Frizzled signaling pathway (statement in words): inhibitor of the Wnt/Frizzled signaling pathway
6 | 8.8 | O=C(Nc1ncc([N+](=O)[O-])s1)c1cc(Cl)ccc1O [Compound 5, 5-chloro-2-hydroxy-N-(5-nitrothiazol-2-yl)benzamide] | 
7 | 17.4 | O=C(Nc1ncc(C(F)(F)F)cc1Cl)c1cc(Cl)ccc1O [Compound 4, 5-chloro-N-(3-chloro-5-(trifluoromethyl)pyridin-2-yl)-2-hydroxybenzamide] | 
8 | 11.4 | CC(=O)Oc1ccccc1C(=O)Nc1ncc([N+](=O)[O-])s1 [C, reference compound] | 
9 |  | O=C(Nc1ccc([N+](=O)[O-])cn1)c1cc(Cl)ccc1O [Compound 2, 5-chloro-2-hydroxy-N-(5-nitropyridin-2-yl)benzamide] | Inhibition Wnt/β-catenin transcription TopFlash, % inhibition (at 2 μM): 75% inhibition at 2 μM
